In brackets after ≈: the same amount, converted by molar mass. Read-outs that look alike come from different tables or passages of the source.
What was measured:
S. aureus 4220 = test: MIC, double dilution method, S. aureus 4220; type: cell-based; conditions: Staphylococcus aureus, 4220, 24 h
C. albicans CMCC 98001 = test: MIC, double dilution method, C. albicans CMCC 98001; type: cell-based, Candida albicans; conditions: for MIC: C. albicans CMCC 98001, fungus, 24 h culture
E. coli 1924 = test: MIC, double dilution method, E. coli 1924; type: cell-based, Escherichia coli
P. aeruginosa CMCC 10211 = test: MIC, double dilution method, P. aeruginosa CMCC 10211; type: cell-based; conditions: Pseudomonas aeruginosa
E. coli ATCC 25922 = test: MIC, double dilution method, E. coli ATCC 25922; type: cell-based; conditions: Escherichia coli
MRSA ATCC 43300 = test: MIC, double dilution method, MRSA ATCC 43300; type: cell-based, Methicillin-resistant Staphylococcus aureus; conditions: Staphylococcus aureus, 24 h, MRSA ATCC 43300, Gram-positive, 24 h culture
S. aureus ATCC 6538 = test: MIC, double dilution method, S. aureus ATCC 6538; type: cell-based; conditions: Staphylococcus aureus, ATCC6538, 24 h
[1] = tested on: Candida albicans CMCC 98001; test: Minimum fungicidal concentration, C. albicans CMCC 98001; type: cell-based
Experimental: (§1) Moreover, minimum bactericidal concentration (MBC (μg/mL)) or minimum fungicidal concentration (MFC (μg/mL)) assays were performed for the promising compounds 10d, 10f, 10g and 10h against Staphylococcus aureus ATCC 6538, Staphylococcus aureus 4220, Staphylococcus aureus ATCC 43300 and Candida albicans CMCC 98001, and shown in Table 2.
(§2) The minimum bactericidal concentration (MBC) or minimum fungicidal concentration (MFC) was determined as described, following the MIC assay, by subculturing 5 μL of the compounds from wells showing no visible growth onto fresh agar plates. The plates were incubated at 37 °C for 24 h.

[2] = tested on: Staphylococcus aureus ATCC 6538; test: Minimum bactericidal concentration, S. aureus ATCC 6538; type: cell-based; conditions: ATCC6538, 99.9% reduction of inoculum
Experimental: as §1, §2

[3] = Cytotoxicity, MTT assay, HepG2; type: cell-based; conditions: human, HepG2 cells, 48 h incubation
Experimental: (§3) The cytotoxicity of the most bioactive compounds 10f, 10g and 10h were evaluated in vitro against the HepG2 cell line (human hepatocellular carcinoma cell line) and the L-02 cell line (normal liver cell line) by 3-(4,5-dimethylthiazol-2-yl)-2,5-diphenyltetrazolium bromide (MTT) assay. The obtained results were presented by the inhibitory concentration that reduces the viability of the cell population to 50% of the maximal viability (IC50).
(§4) HepG2 cells and L-02 cells (ATCC, Manassas, VA, USA) were plated in 96-well plates at a density of 30–40% to ensure exponential growth throughout the experimental period, and then allowed to adhere for 1 day. Next, the cells were treated with eight concentrations (100, 50, 25, 10, 5, 1, 0.1, and 0.01 μmol/L) of each compound. After 48 h of incubation, MTT solution was added to each well at a final concentration of 2 mg/mL and incubated for an additional 4 h. Next, the MTT solution was removed and […] of dimethyl sulphoxide (DMSO)/well was added (Sigma-Aldrich, St. Louis, MO, USA). The plates were shaken vigorously at RT to ensure complete solubilization, and absorption at 492 nm was determined by a microplate reader (BioTek Instruments, Inc., Winooski, VT, USA). At least three independent experiments were conducted.

[4] = Cytotoxicity, MTT assay, L-02; type: cell-based; conditions: human, L-02 cells (normal liver cell line), 48 h incubation
Experimental: as §3, §4

[5] = tested on: Staphylococcus aureus 4220; test: Minimum bactericidal concentration, S. aureus 4220; type: cell-based; conditions: 99.9% reduction of inoculum
Experimental: as §1, §2

[6] = tested on: Staphylococcus aureus ATCC 43300; test: Minimum bactericidal concentration, S. aureus ATCC 43300; type: cell-based; conditions: ATCC43300
Experimental: as §1, §2

Staphylococcus aureus = tested on: Staphylococcus aureus; set-up: method as in PMID 28946655; conditions: cited from earlier work
[7] = tested on: three Gram-positive bacteria strains and two Gram-negative bacteria strains; set-up: method as in PMID 29968851; conditions: cited from earlier work
[8] = tested on: four bacteria and three fungi; set-up: method as in doi:10.1007/s11164-013-1403-x; conditions: cited from earlier work
E. coli ATCC 25,922 = tested on: E. coli ATCC 25,922; set-up: method as in PMID 33839249; conditions: cited from earlier work
[9] = tested on: Gram-positive and Gram-negative bacterial strains; set-up: method as in PMID 27318539; conditions: most of the tested Gram-positive and Gram-negative bacterial strains; cited from earlier work
[10] = S. aureus 4220, Gram-positive, 24 h culture, read-out: MIC
[11] = Candida albicans, CMCC98001, 24 h, read-out: MIC
[12] = Escherichia coli, E. coli 1924, Gram-negative, 24 h culture, read-out: MIC
[13] = CMCC10211, P. aeruginosa CMCC 10211, Gram-negative, 24 h culture, read-out: MIC
[14] = ATCC25922, E. coli ATCC 25922, Gram-negative, 24 h culture, read-out: MIC
[15] = S. aureus ATCC 6538, Gram-positive, 24 h culture, read-out: MIC
[16] = Candida albicans, CMCC98001, 24 h

## C/C(O)=C1/C(=O)N(C)c2ccccc21 [Compound 5a, (Z)-3-(1-hydroxyethylidene)-1-methylindolin-2-one]
S. aureus 4220; [10]
  MIC: 64 µg/mL (≈ 338 µM)
C. albicans CMCC 98001; [11]
  MIC: 32 µg/mL (≈ 169 µM)
E. coli 1924; [12]
  MIC: 64 µg/mL (≈ 338 µM)
P. aeruginosa CMCC 10211; [13]
  MIC: 64 µg/mL (≈ 338 µM)
E. coli ATCC 25922; [14]
  MIC: > 64 µg/mL
MRSA ATCC 43300; read-out: MIC
  MIC: > 64 µg/mL
other
  melting point: 95 to 97 °C
S. aureus ATCC 6538; [15]
  MIC: > 64 µg/mL

## CN1C(=O)/C(=C(\O)c2cccs2)c2ccccc21 [Compound 10a, (Z)-3-(hydroxy(thiophen-2-yl)methylene)-1-methylindolin-2-one]
S. aureus 4220; [10]
  MIC: > 64 µg/mL
C. albicans CMCC 98001; [11]
  MIC: 64 µg/mL (≈ 249 µM)
E. coli 1924; [12]
  MIC: 32 µg/mL (≈ 124 µM)
P. aeruginosa CMCC 10211; [13]
  MIC: 64 µg/mL (≈ 249 µM)
E. coli ATCC 25922; [14]
  MIC: > 64 µg/mL
MRSA ATCC 43300; read-out: MIC
  MIC: 64 µg/mL (≈ 249 µM)
other
  melting point: 141 to 143 °C
S. aureus ATCC 6538; [15]
  MIC: 64 µg/mL (≈ 249 µM)

## CN1C(=O)/C(=C(\O)c2ccc(F)cc2)c2ccccc21 [Compound 10d, (Z)-3-((4-fluorophenyl)(hydroxy)methylene)-1-methylindolin-2-one]
S. aureus 4220
  MIC: 16 µg/mL (≈ 59.4 µM)
C. albicans CMCC 98001; C. albicans CMCC 98001
  antifungal activity (class in words): moderate antifungal activity
C. albicans CMCC 98001
  MIC: 8 µg/mL (≈ 29.7 µM)
C. albicans CMCC 98001; [16]
  MIC: 8 to 16 µg/mL (≈ 29.7 to 59.4 µM)
E. coli 1924; Escherichia coli, 1924, 24 h
  MIC: 8 µg/mL (≈ 29.7 µM)
P. aeruginosa CMCC 10211; CMCC10211, 24 h
  MIC: > 64 µg/mL
E. coli ATCC 25922; ATCC25922, 24 h
  MIC: 64 µg/mL (≈ 238 µM)
MRSA ATCC 43300
  MIC: 32 µg/mL (≈ 119 µM)
[1]
  MFC/MIC: 2
[1]; CMCC98001, 99.9% reduction of inoculum
  MFC: 16 µg/mL (≈ 59.4 µM)
S. aureus ATCC 6538
  MIC: 4 µg/mL (≈ 14.9 µM)

## Cc1cccc2c1N(C)C(=O)/C2=C(\O)c1ccc(Cl)cc1 [Compound 10f, (Z)-3-((4-chlorophenyl)(hydroxy)methylene)-1,7-dimethylindolin-2-one]
[2]
  MBC: 32 µg/mL (≈ 107 µM)
S. aureus 4220
  MIC: 4 µg/mL (≈ 13.3 µM)
C. albicans CMCC 98001; [16]
  MIC: > 64 µg/mL
E. coli 1924; Escherichia coli, 1924, 24 h
  MIC: 8 µg/mL (≈ 26.7 µM)
P. aeruginosa CMCC 10211; CMCC10211, 24 h
  MIC: > 64 µg/mL
E. coli ATCC 25922; ATCC25922, 24 h
  MIC: > 64 µg/mL
MRSA ATCC 43300
  MIC: 2 µg/mL (≈ 6.67 µM)
[3]
  IC50 at 48 h: > 100 µM
S. aureus ATCC 6538
  MIC: 0.5 µg/mL (≈ 1.67 µM)
[4]
  IC50 at 48 h: > 100 µM

## CN1C(=O)/C(=C(\O)c2ccc(Cl)cc2)c2cccc(Br)c21 [Compound 10g, (Z)-7-bromo-3-((4-chlorophenyl)(hydroxy)methylene)-1-methylindolin-2-one]
S. aureus 4220
  MIC: 0.5 µg/mL (≈ 1.37 µM)
C. albicans CMCC 98001; [16]
  MIC: > 64 µg/mL
E. coli 1924; Escherichia coli, 1924, 24 h
  MIC: 1 µg/mL (≈ 2.74 µM)
P. aeruginosa CMCC 10211; CMCC10211, 24 h
  MIC: > 64 µg/mL
[5]
  MBC: 32 µg/mL (≈ 87.8 µM)
E. coli ATCC 25922; ATCC25922, 24 h
  MIC: 64 µg/mL (≈ 176 µM)
MRSA ATCC 43300
  MIC: 0.5 µg/mL (≈ 1.37 µM)
[3]
  IC50 at 48 h: > 100 µM
S. aureus ATCC 6538
  MIC: 2 µg/mL (≈ 5.49 µM)
[4]
  IC50 at 48 h: > 100 µM

## CCCN1C(=O)/C(=C(\O)c2ccc(Cl)cc2)c2ccccc21 [Compound 10h, (Z)-3-((4-chlorophenyl)(hydroxy)methylene)-1-propylindolin-2-one]
S. aureus 4220
  MIC: 1 µg/mL (≈ 3.19 µM)
C. albicans CMCC 98001; [16]
  MIC: 64 µg/mL (≈ 204 µM)
E. coli 1924; Escherichia coli, 1924, 24 h
  MIC: 1 µg/mL (≈ 3.19 µM)
P. aeruginosa CMCC 10211; CMCC10211, 24 h
  MIC: 16 µg/mL (≈ 51 µM)
E. coli ATCC 25922; ATCC25922, 24 h
  MIC: 16 µg/mL (≈ 51 µM)
MRSA ATCC 43300
  MIC: 0.5 µg/mL (≈ 1.59 µM)
[6]
  MBC: 32 µg/mL (≈ 102 µM)
[3]
  IC50 at 48 h: 41.6 µM
S. aureus ATCC 6538
  MIC: 0.5 µg/mL (≈ 1.59 µM)
[4]
  IC50 at 48 h: 53.5 µM

## O=C1NC(c2c[nH]c3ccc(O)cc23)=C/C1=C1\C(=O)Nc2ccccc21 [Compound VI, violacein]
Staphylococcus aureus
  MIC: 6.25 µM (≈ 2.15 µg/mL)

## Cn1c([N+](=O)[O-])cnc1/C=C1/C(=O)Nc2ccc([N+](=O)[O-])cc21 [Compound XI]
[7]
  MIC: 0.0625 to 4 µg/mL

## O=C1Nc2ccccc2/C1=C\C(=O)c1cc(Cl)c(Cl)cc1O [Compound X]
[8]
  MIC: 12 to 18 µg/mL

## OC(Cn1cncn1)(Cn1cncn1)c1ccc(F)cc1F [Flu, Fluconazole, reference compound]
S. aureus 4220; [10]
  MIC: > 64 µg/mL
C. albicans CMCC 98001; [11]
  MIC: 2 µg/mL (≈ 6.53 µM)
E. coli 1924; [12]
  MIC: > 64 µg/mL
P. aeruginosa CMCC 10211; [13]
  MIC: > 64 µg/mL
E. coli ATCC 25922; [14]
  MIC: > 64 µg/mL
MRSA ATCC 43300; read-out: MIC
  MIC: > 64 µg/mL
S. aureus ATCC 6538; [15]
  MIC: > 64 µg/mL

## COc1c(N2CCNC(C)C2)c(F)cc2c(=O)c(C(=O)O)cn(C3CC3)c12 (stereo not shown) [Gati, Gatifloxacin, reference compound]
S. aureus 4220; [10]
  MIC: 0.5 µg/mL (≈ 1.33 µM)
C. albicans CMCC 98001; [11]
  MIC: > 64 µg/mL
E. coli 1924; [12]
  MIC: 0.5 µg/mL (≈ 1.33 µM)
P. aeruginosa CMCC 10211; [13]
  MIC: 0.5 µg/mL (≈ 1.33 µM)
E. coli ATCC 25922; [14]
  MIC: 0.5 µg/mL (≈ 1.33 µM)
MRSA ATCC 43300; read-out: MIC
  MIC: 0.5 µg/mL (≈ 1.33 µM)
S. aureus ATCC 6538; [15]
  MIC: 0.5 µg/mL (≈ 1.33 µM)

## CCC(=O)/C=C1/C(=O)N(CCn2cncn2)c2ccccc21 [IX]
E. coli ATCC 25,922
  MIC: 1 µg/mL (≈ 3.37 µM)

## CN(C)c1cccc2cc(S(=O)(=O)N3CCN(c4ccc(/C=C5\C(=O)Nc6ccccc65)cc4)CC3)ccc12 [VII]
[9]
  MIC: 12.5 to 50 µg/mL
